From patent US8623601B2, “Methods of diagnosing cancer” (Cognosci, Inc., priority 2011, dated 2014)
Where two headings read alike, the source gives them in different places. *1 amine or outer side, *2 acyl side, *3 side chain or, on linkers, in order; H or OH if unused. Bridges are numbered along the chain shown (N, C = ends). Roman numbers before positions name the chains, in order. [ ]: non-standard residue; d: D form. BMOE = O=C1CC([*:1])C(=O)N1CCN1C(=O)CC([*:2])C1=O; Aib = CC(C)(N)C(=O)O

How the values were obtained:
CLL cells = assay: CLL cell cytotoxicity, MTS assay; assay type: cell-based, human; settings: 72 hours
Description: (§1) For cytotoxicity assays, 3×10^6 CLL cells/well were cultured in 24 well tissue culture plates in 1.5 mL of Hybridoma SFM™ (Gibco, Long Island, N.Y.) as described by Levesque et al. (Levesque et al. 2001) (Levesque et al. 2003) All cultures were incubated at 37° C., 5% CO2 in air. […] (Levesque et al. 2003)
(§2) Based on the induction of apoptosis in CLL cells, we tested several analogs of COG449 for cytotoxicity against CLL cells freshly isolated from a number of patients and against normal B-cells from healthy volunteers (Table 4). Cells were cultured with the agents for 72 hours, and the viable cells were assessed for cytotoxicity using the MTS assay. […] We also analyzed the effect of shRNA-mediated knockdown of SET on the growth of B-cell lymphoma cell lines.

normal B-cells = assay: Cytotoxicity to normal B-cells from healthy volunteers, MTS assay; assay type: cell-based, human; settings: normal B-cells from healthy volunteers, 72 hours, read-out: Normal ED50
Text: (§3) CLL was diagnosed according to the NCl Working Group criteria (Hallek et al. 2008). Healthy volunteers and CLL patients from the Duke University and Durham Va. Medical Centers were enrolled in IRB-approved research protocols to collect clinical data and blood. Subjects gave signed informed consent prior to phlebotomy, in accordance with the Declaration of Helsinki. Blood was collected from participants into heparin-tubes, and CLL cells were purified as noted before (Weinberg et al. 2007). Briefly, CLL cells were isolated using the RosetteSep® B cell enrichment cocktail (catalog #15024/15064; Stem Cell Technologies, Vancouver, BC, Canada) according to the manufacturer's directions. This method yielded CLL cell purity of greater than 95% CD5+CD19+ B-cells as determined by flow cytometry. Normal B-lymphocytes were isolated using the EasySep® B-cell enrichment cocktail (catalog #15024/15064; Stem Cell Technologies, Vancouver, BC, Canada) according to the manufacturer's directions, with a purity of >94% CD 19+ lymphocytes.
as §1, §2

[1] = as above; assay type: cell-based, human; settings: human
Text: as §3, §1, §2

Ramos cells = assay: Growth inhibition / cytotoxicity in Ramos NHL cells; assay type: cell-based, human
Description: FIG. 6: SET antagonism is cytotoxic to CLL cells and inhibits NHL cell growth in vitro. (A) Dose response curves for COG445 treatment of CLL cells from 7 patients or normal B-cells from 5 volunteers. (B) Dose response curves for COG449 treatment on CLL cells from 7 patients. (C) Raji NHL cells were transduced with SET shRNA or control lentivirus and knockdown was assessed by Western blotting from two samples of each.
FIG. 7: Cytotoxicity of COG449 can be modulated by a PP2A inhibitor in Ramos cells. Ramos cells were pretreated for 5 minutes with or without 1 nM OA before treatment with 1 μM COG449. After 24 hours, cytotoxicity was assessed using the […] assay reagent to detect viable cells.
as §2

SET (α and β isoforms) = settings: 10 μM biotin-labeled peptide, pull-down on beads, Western blot
Sequence of SET (α and β isoforms) (Q01105 38-290 limits assumed): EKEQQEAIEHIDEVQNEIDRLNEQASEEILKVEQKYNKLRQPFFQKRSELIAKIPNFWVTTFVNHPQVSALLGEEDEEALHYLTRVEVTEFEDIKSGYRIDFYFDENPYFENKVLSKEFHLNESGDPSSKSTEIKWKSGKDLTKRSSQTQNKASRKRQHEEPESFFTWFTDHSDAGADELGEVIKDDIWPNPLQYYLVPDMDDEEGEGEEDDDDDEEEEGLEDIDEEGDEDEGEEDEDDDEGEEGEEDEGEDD
Description: Complexes bound to Neutravidin-Agarose (NA) beads were then detected by Western blotting. Lane 1 contains 20 μg of cell lysate as a loading control. […] Lysates were incubated with biotin reagents for 1 hr before addition of NA beads and then incubated for an additional hour. After rigorous washing, the beads were boiled in SDS PAGE buffer, separated by PAGE and blotted to nitrocellulose.
CLL cells were lysed in NP40 buffer (50 mM Tris, 0.2% NP40, 150 mM NaCl) by a single freeze thaw cycle. Lysate protein concentration was adjusted to 5 mg/mL. Streptavidin agarose beads (1 mL) were washed with 10 mL of NP40 buffer, and 0.5 mL of beads was added to 1 mL of extract. ABeads were then collected by filtration through a disposable mini-column (Bio-Rad), and the flow-through extract was collected for analysis. Following washing with 100 mL of chilled NP40 buffer, the beads were removed from the column, collected by centrifugation, and 75 μL of 4× Laemmli buffer was added. Beads were vortexed and heated to 90° C. for 10 min to ensure that all proteins were released from the beads. Proteins were separated by SDS PAGE and Western blotting was used to determine if the COG133 and COG112 peptides bound to both isoforms of SET from a CLL patient sample.

[2] = CLL cells freshly isolated from patients, read-out: CLL ED50
[3] = CLL cells from 7 patients, read-out: ED50 of cytotoxicity to CLL cells

AS(Aib)LRKL(Aib)KRLL (Ac-AS[Aib]LRKL[Aib]KRLL-NH2) [COG1410, Aib = aminoisobutyric acid]
EC50 (CLL cells; [2]): 5.7 ± 3 µM
EC50 (normal B-cells): > 20 µM

I: Ac-RQIKIWFQNRRMKWKKCLRVRLASHLRKLRKRLL-NH2 / II: Ac-RQIKIWFQNRRMKWKKCLRVRLASHLRKLRKRLL-NH2 (disulfide I:17-II:17 (inferred)) [COG445]
EC50 (CLL cells; [3]): 0.11 µM
EC50 at 72 h [1]: ≥ 10 µM
EC50 (normal B-cells): > 10 µM

I: Ac-RQIKIWFQNRRMKWKKCLRVRLASHLRKLRKRLL-NH2 / II: Ac-RQIKIWFQNRRMKWKKCLRVRLASHLRKLRKRLL-NH2 (linker I:17-II:17 via BMOE) [COG449]
cytotoxicity in Ramos cells (Ramos cells; 1 μM COG449, 24 hours): robust cytotoxic effect
cytotoxicity in Ramos cells with PP2A inhibitor (Ramos cells; 1 μM COG449 after pretreatment with 1 nM OA, 24 hours): partially counteracted by treatment with OA
EC50 (CLL cells; [3]): 0.103 µM

LLRKRLKRLHSALRVRL [COG056]
EC50 (CLL cells; [2]): 12.9 ± 4.6 µM
EC50 (normal B-cells): > 20 µM

LRVRLASHLRKLRKRLL [COG133]
EC50 (CLL cells; [2]): 4.4 ± 1.5 µM
EC50 (normal B-cells): > 20 µM
binding to SET isoforms in CLL cell lysate (SET (α and β isoforms)): binds to both SET isoforms

RQIKIWFQNRRMKWKK-C-LRVRLASHLRKLRKRLL [COG112]
EC50 (CLL cells; [2]): 1.4 ± 0.7 µM
EC50 (normal B-cells): > 20 µM
binding to SET isoforms in CLL cell lysate (SET (α and β isoforms)): binds to both SET isoforms

oakadaic acid [reference compound]
cytotoxicity in Ramos cells (Ramos cells; 1 nM OA alone, 24 hours): not cytotoxic
